# Results: ChEMBL document CHEMBL1201862, “PubChem BioAssay data set” (2004)
#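 Each compound was tested at five concentrations against cells in 96-well plates for 48 hours. Here, GI50 denotes the concentration required for 50% inhibition of growth.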 The source made the active and inactive calls. Rule as the data show it: active = GI50 up to about 1.1 µM and inactive = higher.
# Experiments:
# Assay in all cases: NCI anticancer screen, dose series, 48 h
# 786-0 = system: 786-0
# A498 = system: A498
# A549 = system: A549
# ACHN = system: ACHN
# BT-549 = system: BT-549
# CAKI-1 = system: CAKI-1
# CCRF-CEM = system: CCRF-CEM
# COLO 205 = system: COLO 205
# DU-145 = system: DU-145
# EKVX = system: EKVX
# HCC 2998 = system: HCC 2998
# HCT-116 = system: HCT-116
# HCT-15 = system: HCT-15
# HL-60 = system: HL-60
# HOP-62 = system: HOP-62
# HT-29 = system: HT-29
# Hs-578T = system: Hs-578T
# IGROV-1 = system: IGROV-1
# K562 = system: K562
# KM12 = system: KM12
# LOX IMVI = system: LOX IMVI
# M14 = system: M14
# MCF7 = system: MCF7
# MDA-MB-231 = system: MDA-MB-231
# MDA-MB-435 = system: MDA-MB-435
# MDA-N = system: MDA-N
# MOLT-4 = system: MOLT-4
# Malme-3M = system: Malme-3M
# NCI-H226 = system: NCI-H226
# NCI-H23 = system: NCI-H23
# NCI-H460 = system: NCI-H460
# NCI-H522 = system: NCI-H522
# NCI/ADR-RES = system: NCI/ADR-RES
# OVCAR-3 = system: OVCAR-3
# OVCAR-4 = system: OVCAR-4
# OVCAR-5 = system: OVCAR-5
# OVCAR-8 = system: OVCAR-8
# PC-3 = system: PC-3
# RPMI-8226 = system: RPMI-8226
# RXF 393 = system: RXF 393
# SF-268 = system: SF-268
# SF-295 = system: SF-295
# SF-539 = system: SF-539
# SK-MEL-28 = system: SK-MEL-28
# SK-MEL-2 = system: SK-MEL-2
# SK-OV-3 = system: SK-OV-3
# SN12C = system: SN12C
# SNB-19 = system: SNB-19
# SNB-75 = system: SNB-75
# SW-620 = system: SW-620
# T47D = system: T47D
# TK-10 = system: TK-10
# U-251 = system: U-251
# UACC-257 = system: UACC-257
# UACC-62 = system: UACC-62
# HOP-92 = system: HOP-92
# SK-MEL-5 = system: SK-MEL-5
# UO-31 = system: UO-31
smiles,measurement,setting,value
CCOC(=O)/C(C(=O)Nc1ccc(Cl)cc1)=C(/N)N1CCOCC1,GI50,786-0,> 100 µM (inactive)
same,GI50,A498,> 100 µM (inactive)
same,GI50,A549,> 100 µM (inactive)
same,GI50,ACHN,> 100 µM (inactive)
same,GI50,BT-549,> 100 µM (inactive)
same,GI50,CAKI-1,> 100 µM (inactive)
same,GI50,CCRF-CEM,> 100 µM (inactive)
same,GI50,COLO 205,> 100 µM (inactive)
same,GI50,DU-145,> 100 µM (inactive)
same,GI50,EKVX,> 100 µM (inactive)
same,GI50,HCC 2998,> 100 µM (inactive)
same,GI50,HCT-116,> 100 µM (inactive)
same,GI50,HCT-15,> 100 µM
same,GI50,HL-60,> 100 µM (inactive)
same,GI50,HOP-62,> 100 µM (inactive)
same,GI50,HT-29,> 100 µM (inactive)
same,GI50,Hs-578T,> 100 µM (inactive)
same,GI50,IGROV-1,> 100 µM (inactive)
same,GI50,K562,> 100 µM (inactive)
same,GI50,KM12,> 100 µM (inactive)
same,GI50,LOX IMVI,> 100 µM (inactive)
same,GI50,M14,> 100 µM (inactive)
same,GI50,MCF7,> 100 µM (inactive)
same,GI50,MDA-MB-231,> 100 µM (inactive)
same,GI50,MDA-MB-435,> 100 µM (inactive)
same,GI50,MDA-N,> 100 µM (inactive)
same,GI50,MOLT-4,> 100 µM (inactive)
same,GI50,Malme-3M,> 100 µM (inactive)
same,GI50,NCI-H226,> 100 µM (inactive)
same,GI50,NCI-H23,> 100 µM (inactive)
same,GI50,NCI-H460,> 100 µM (inactive)
same,GI50,NCI-H522,> 100 µM (inactive)
same,GI50,NCI/ADR-RES,> 100 µM (inactive)
same,GI50,OVCAR-3,> 100 µM (inactive)
same,GI50,OVCAR-4,> 100 µM (inactive)
same,GI50,OVCAR-5,> 100 µM (inactive)
same,GI50,OVCAR-8,> 100 µM (inactive)
same,GI50,PC-3,> 100 µM (inactive)
same,GI50,RPMI-8226,> 100 µM (inactive)
same,GI50,RXF 393,> 100 µM (inactive)
same,GI50,SF-268,> 100 µM (inactive)
same,GI50,SF-295,> 100 µM (inactive)
same,GI50,SF-539,> 100 µM (inactive)
same,GI50,SK-MEL-28,> 100 µM (inactive)
same,GI50,SK-MEL-2,> 100 µM (inactive)
same,GI50,SK-OV-3,> 100 µM (inactive)
same,GI50,SN12C,> 100 µM (inactive)
same,GI50,SNB-19,> 100 µM (inactive)
same,GI50,SNB-75,> 100 µM (inactive)
same,GI50,SW-620,> 100 µM (inactive)
same,GI50,T47D,> 100 µM (inactive)
same,GI50,TK-10,> 100 µM (inactive)
same,GI50,U-251,> 100 µM (inactive)
same,GI50,UACC-257,> 100 µM (inactive)
same,GI50,UACC-62,> 100 µM (inactive)
Cc1ccc(C2(c3ccc(Cl)cc3)c3ccccc3C3=NCCN32)cc1 (centres undefined),GI50,786-0,13.1 µM (inactive)
same,GI50,A498,4.92 µM (inactive)
same,GI50,A549,11.1 µM (inactive)
same,GI50,ACHN,6.93 µM (inactive)
same,GI50,BT-549,12.6 µM (inactive)
same,GI50,CAKI-1,21.5 µM (inactive)
same,GI50,CCRF-CEM,4.5 µM (inactive)
same,GI50,COLO 205,4.6 µM (inactive)
same,GI50,DU-145,13.2 µM (inactive)
same,GI50,EKVX,14.1 µM (inactive)
same,GI50,HCC 2998,5.58 µM (inactive)
same,GI50,HCT-116,2.19 µM (inactive)
same,GI50,HCT-15,11.6 µM
same,GI50,HL-60,6.79 µM (inactive)
same,GI50,HOP-62,9.68 µM (inactive)
same,GI50,HOP-92,6.04 µM (inactive)
same,GI50,HT-29,1.89 µM (inactive)
same,GI50,Hs-578T,14.2 µM (inactive)
same,GI50,IGROV-1,2.15 µM (inactive)
same,GI50,K562,3.74 µM (inactive)
same,GI50,KM12,10.7 µM (inactive)
same,GI50,LOX IMVI,12.8 µM (inactive)
same,GI50,M14,3.7 µM (inactive)
same,GI50,MCF7,1.44 µM (inactive)
same,GI50,MDA-MB-231,5.7 µM (inactive)
same,GI50,MDA-MB-435,2.86 µM (inactive)
same,GI50,MDA-N,3.37 µM (inactive)
same,GI50,MOLT-4,3.66 µM (inactive)
same,GI50,Malme-3M,3.67 µM (inactive)
same,GI50,NCI-H226,16.3 µM (inactive)
same,GI50,NCI-H23,14.3 µM (inactive)
same,GI50,NCI-H460,6 µM (inactive)
same,GI50,NCI/ADR-RES,10 µM (inactive)
same,GI50,OVCAR-3,10.3 µM (inactive)
same,GI50,OVCAR-4,1.83 µM (inactive)
same,GI50,OVCAR-5,12.5 µM (inactive)
same,GI50,OVCAR-8,14.5 µM (inactive)
same,GI50,PC-3,8.3 µM (inactive)
same,GI50,RPMI-8226,7.16 µM (inactive)
same,GI50,RXF 393,2.31 µM (inactive)
same,GI50,SF-268,15.1 µM (inactive)
same,GI50,SF-295,1.59 µM (inactive)
same,GI50,SK-MEL-28,14.7 µM (inactive)
same,GI50,SK-MEL-2,12.2 µM (inactive)
same,GI50,SK-MEL-5,10.9 µM (inactive)
same,GI50,SK-OV-3,6.08 µM (inactive)
same,GI50,SN12C,15.1 µM (inactive)
same,GI50,SNB-19,13.7 µM (inactive)
same,GI50,SNB-75,12.2 µM (inactive)
same,GI50,SW-620,10.8 µM (inactive)
same,GI50,T47D,15.7 µM (inactive)
same,GI50,TK-10,5.43 µM (inactive)
same,GI50,U-251,11.5 µM (inactive)
same,GI50,UACC-257,6.55 µM (inactive)
same,GI50,UACC-62,7.1 µM (inactive)
same,GI50,UO-31,3.37 µM (inactive)
O=C(O)C1NCCc2c1[nH]c1ccccc21 (centres undefined),GI50,BT-549,> 10 µM (inactive)
same,GI50,DU-145,> 10 µM (inactive)
same,GI50,HOP-62,> 10 µM (inactive)
same,GI50,Hs-578T,> 10 µM (inactive)
same,GI50,MCF7,> 10 µM (inactive)
same,GI50,MDA-MB-231,> 10 µM (inactive)
same,GI50,MDA-MB-435,> 10 µM (inactive)
same,GI50,MDA-N,> 10 µM (inactive)
same,GI50,NCI/ADR-RES,> 10 µM (inactive)
same,GI50,PC-3,> 10 µM (inactive)
same,GI50,RPMI-8226,> 10 µM (inactive)
same,GI50,RXF 393,> 10 µM (inactive)
same,GI50,T47D,> 10 µM (inactive)
